In ChEMBL document CHEMBL1201862, “PubChem BioAssay data set” (2004):
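Protocol summary: plate cells (96-well), add compound at 5 concentrations, incubate 48 h, interpolate endpoints linearly. GI50 is the concentration that inhibits growth by half.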 Calls of active or inactive are those of the source. Cut-off read from the data, not from the text of the source: active = GI50 up to about 1.1 µM and inactive = higher.

How the values were obtained:
Test in all cases: inhibition of tumour cell growth, NCI panel, 48 h
DU-145 = system: DU-145
EKVX = system: EKVX
HCT-116 = system: HCT-116
HCT-15 = system: HCT-15
HOP-92 = system: HOP-92
K562 = system: K562
KM12 = system: KM12
M14 = system: M14
MDA-MB-435 = system: MDA-MB-435
NCI-H23 = system: NCI-H23
NCI-H460 = system: NCI-H460
OVCAR-4 = system: OVCAR-4
OVCAR-8 = system: OVCAR-8
PC-3 = system: PC-3
RXF 393 = system: RXF 393
SF-295 = system: SF-295
SK-MEL-5 = system: SK-MEL-5
SNB-75 = system: SNB-75
HCC 2998 = system: HCC 2998
SR = system: SR

SMILES	GI50 (DU-145)	GI50 (EKVX)	GI50 (HCT-116)	GI50 (HCT-15) [µM]	GI50 (HOP-92)	GI50 (K562)	GI50 (KM12)	GI50 (M14)	GI50 (MDA-MB-435)	GI50 (NCI-H23)	GI50 (NCI-H460)	GI50 (OVCAR-4)	GI50 (OVCAR-8)	GI50 (PC-3)	GI50 (RXF 393)	GI50 (SF-295)	GI50 (SK-MEL-5)	GI50 (SNB-75)	GI50 (HCC 2998)	GI50 (SR)
CC1OC(O)C(O)C(O)C1O (configuration not stated)	> 100 µM (inactive)	> 100 µM (inactive)	> 100 µM (inactive)	> 100	> 100 µM (inactive)	> 100 µM (inactive)	> 100 µM (inactive)	> 100 µM (inactive)	> 100 µM (inactive)	> 100 µM (inactive)	> 100 µM (inactive)	> 100 µM (inactive)	> 100 µM (inactive)	> 100 µM (inactive)	> 100 µM (inactive)	> 100 µM (inactive)	> 100 µM (inactive)	> 100 µM (inactive)	–	–
O=C(C1OC1c1ccc(F)cc1)C12CC3CC(CC(C3)C1)C2 (configuration not stated)	34 µM (inactive)	19.3 µM (inactive)	5.98 µM (inactive)	15.5	20.3 µM (inactive)	17.6 µM (inactive)	15.7 µM (inactive)	15.7 µM (inactive)	11.9 µM (inactive)	22.1 µM (inactive)	13.3 µM (inactive)	13.8 µM (inactive)	14.4 µM (inactive)	30.7 µM (inactive)	17.7 µM (inactive)	22.6 µM (inactive)	16.5 µM (inactive)	31 µM (inactive)	20.1 µM (inactive)	–
CC(=O)O[C@H]1[C@@H]2[C@@H]3[C@@H](C[C@H]1C)[C@@H](C)CO[C@@]1(C)CC/C=C(/C)C[C@@H]2O[C@@H]31	–	> 100 µM (inactive)	> 100 µM (inactive)	> 100	> 100 µM (inactive)	> 100 µM (inactive)	> 100 µM (inactive)	> 100 µM (inactive)	–	> 100 µM (inactive)	> 100 µM (inactive)	> 100 µM (inactive)	> 100 µM (inactive)	–	> 100 µM (inactive)	> 100 µM (inactive)	> 100 µM (inactive)	> 100 µM (inactive)	56.2 µM (inactive)	> 100 µM (inactive)
OCCOCn1nncc1Cn1ncc2c(SCc3ccccc3)ncnc21	> 100 µM (inactive)	> 100 µM (inactive)	45.9 µM (inactive)	57.3	80.9 µM (inactive)	37.7 µM (inactive)	> 100 µM (inactive)	59.3 µM (inactive)	45.9 µM (inactive)	> 100 µM (inactive)	> 100 µM (inactive)	88.5 µM (inactive)	64 µM (inactive)	94.8 µM (inactive)	> 100 µM (inactive)	> 100 µM (inactive)	> 100 µM (inactive)	60.4 µM (inactive)	> 100 µM (inactive)	–
Nc1ccc2nc3n(c2c1)C(=O)c1ccccc1-3	> 100 µM (inactive)	> 100 µM (inactive)	> 100 µM (inactive)	> 100	> 100 µM (inactive)	> 100 µM (inactive)	> 100 µM (inactive)	> 100 µM (inactive)	–	> 100 µM (inactive)	> 100 µM (inactive)	> 100 µM (inactive)	> 100 µM (inactive)	> 100 µM (inactive)	> 100 µM (inactive)	> 100 µM (inactive)	> 100 µM (inactive)	> 100 µM (inactive)	> 100 µM (inactive)	> 100 µM (inactive)
COc1cccc(Nc2nc(C)c([N+](=O)[O-])c(Nc3cccc(OC)c3)n2)c1	9.79 µM (inactive)	6.35 µM (inactive)	26.6 µM (inactive)	18.4	6.08 µM (inactive)	8.65 µM (inactive)	–	10.4 µM (inactive)	–	16.2 µM (inactive)	3.95 µM (inactive)	–	5.74 µM (inactive)	12.4 µM (inactive)	4.86 µM (inactive)	< 0.01 µM (active)	11.4 µM (inactive)	0.313 µM (active)	–	7.76 µM (inactive)
CCCCCCCCC[C@@H]1CC(=O)OCC2OC(O[C@H](CCCCCCCCC)CC(=O)OCC3OC(O[C@H](CCCCCCCCC)CC(=O)OCC4OC(O1)C(O)C(O)C4O)C(O)C(O)C3O)C(O)C(O)C2O (some centres not stated)	–	12 µM (inactive)	8.18 µM (inactive)	5.43	7.05 µM (inactive)	3.47 µM (inactive)	6.5 µM (inactive)	4.97 µM (inactive)	–	16 µM (inactive)	5.13 µM (inactive)	18.2 µM (inactive)	14.3 µM (inactive)	–	17 µM (inactive)	14.1 µM (inactive)	12.5 µM (inactive)	9.27 µM (inactive)	12 µM (inactive)	6.7 µM (inactive)
CC(C)(C)O/C=C1/C(=O)OC2C[C@@H](O[Si](C)(C)C(C)(C)C)CC12 (some centres not stated)	29.4 µM (inactive)	> 100 µM (inactive)	37.1 µM (inactive)	49.3	43.7 µM (inactive)	–	65.2 µM (inactive)	54.6 µM (inactive)	77.6 µM (inactive)	39.7 µM (inactive)	79.8 µM (inactive)	74 µM (inactive)	48.1 µM (inactive)	45.5 µM (inactive)	0.759 µM (active)	61.5 µM (inactive)	60.3 µM (inactive)	16.8 µM (inactive)	> 100 µM (inactive)	–
COc1ccc(OC)c(/C=N/N=C2\C(=O)Nc3c(Cl)cc(Cl)cc32)c1	–	8.67 µM (inactive)	52.4 µM (inactive)	36.6	47.3 µM (inactive)	36 µM (inactive)	35.4 µM (inactive)	68.4 µM (inactive)	32.7 µM (inactive)	48.4 µM (inactive)	63.5 µM (inactive)	38.2 µM (inactive)	61 µM (inactive)	38.8 µM (inactive)	66.2 µM (inactive)	32.1 µM (inactive)	56.1 µM (inactive)	0.505 µM (active)	> 100 µM (inactive)	25.1 µM (inactive)
CC[C@@H]1OC2(C)CC(S(=O)(=O)c3ccccc3O)CC1O2 (some centres not stated)	–	> 100 µM (inactive)	> 100 µM (inactive)	> 100	> 100 µM (inactive)	> 100 µM (inactive)	> 100 µM (inactive)	> 100 µM (inactive)	–	> 100 µM (inactive)	> 100 µM (inactive)	> 100 µM (inactive)	> 100 µM (inactive)	–	> 100 µM (inactive)	> 100 µM (inactive)	> 100 µM (inactive)	> 100 µM (inactive)	> 100 µM (inactive)	> 100 µM (inactive)
CC1(C)CC(=O)C(C(=O)Nc2cccs2)=C(O)C1	–	42 µM (inactive)	29.7 µM (inactive)	33.9	27.6 µM (inactive)	28.1 µM (inactive)	38.1 µM (inactive)	36.7 µM (inactive)	–	30 µM (inactive)	35.9 µM (inactive)	31.1 µM (inactive)	34.8 µM (inactive)	–	29.9 µM (inactive)	28.9 µM (inactive)	40.6 µM (inactive)	25.2 µM (inactive)	48.5 µM (inactive)	29.9 µM (inactive)
COCCOCOC(C)(C)[C@H](CCOC(C)=O)O[Si](c1ccccc1)(c1ccccc1)C(C)(C)C	–	27.2 µM (inactive)	5.93 µM (inactive)	20.3	5.61 µM (inactive)	5.75 µM (inactive)	15.4 µM (inactive)	14.1 µM (inactive)	–	10.5 µM (inactive)	5.74 µM (inactive)	15 µM (inactive)	11.9 µM (inactive)	–	16 µM (inactive)	16 µM (inactive)	10.5 µM (inactive)	38.7 µM (inactive)	9.1 µM (inactive)	4.42 µM (inactive)
NC(=O)CCC(NC(=O)c1c2ccccc2nc2ccccc12)C(=O)O (configuration not stated)	> 100 µM (inactive)	> 100 µM (inactive)	> 100 µM (inactive)	> 100	> 100 µM (inactive)	> 100 µM (inactive)	> 100 µM (inactive)	> 100 µM (inactive)	> 100 µM (inactive)	> 100 µM (inactive)	> 100 µM (inactive)	> 100 µM (inactive)	> 100 µM (inactive)	> 100 µM (inactive)	–	> 100 µM (inactive)	> 100 µM (inactive)	> 100 µM (inactive)	> 100 µM (inactive)	–
O=C(/C=C/c1cccs1)c1ccsc1	50.2 µM (inactive)	31.1 µM (inactive)	–	16.8	–	17.5 µM (inactive)	> 10 µM (inactive)	39.2 µM (inactive)	21.8 µM (inactive)	18.1 µM (inactive)	24.5 µM (inactive)	51.1 µM (inactive)	27.6 µM (inactive)	22.4 µM (inactive)	–	32.4 µM (inactive)	18.9 µM (inactive)	27.8 µM (inactive)	17.4 µM (inactive)	16.6 µM (inactive)
CC1(C)C2CCC1(CC(=O)O)C(Cl)C2 (configuration not stated)	> 100 µM (inactive)	> 100 µM (inactive)	> 100 µM (inactive)	> 100	–	> 100 µM (inactive)	> 100 µM (inactive)	> 100 µM (inactive)	> 100 µM (inactive)	> 100 µM (inactive)	> 100 µM (inactive)	> 100 µM (inactive)	> 100 µM (inactive)	> 100 µM (inactive)	> 100 µM (inactive)	> 100 µM (inactive)	> 100 µM (inactive)	> 100 µM (inactive)	> 100 µM (inactive)	–
O=S(=O)(O)c1cc(O)c(/N=N/c2ccc(O)cc2O)c2ccccc12	–	30.9 µM (inactive)	36.6 µM (inactive)	64	> 100 µM (inactive)	> 100 µM (inactive)	20.9 µM (inactive)	42.7 µM (inactive)	51.3 µM (inactive)	–	–	> 100 µM (inactive)	30.8 µM (inactive)	53.5 µM (inactive)	> 100 µM (inactive)	61.8 µM (inactive)	> 100 µM (inactive)	> 100 µM (inactive)	–	> 100 µM (inactive)
